From patent publication US12428406B2 (PMV Pharmaceuticals, Inc., priority 2019, dated 2025)

Molecular target: T1, p53 Y220C (Homo sapiens, UniProt P04637, Y220C)
T1 construct: The recombinant protein was a truncation mutant containing only amino acids 94-312 of p53; made in house; host or cells: E. coli
Assay: In vitro DNA binding activity assay (HTRF / TR-FRET): stabilization of p53 Y220C and increase of its DNA binding activity
Format: biochemical
Details: recombinant His-tagged p53 Y220C DNA binding domain (aa 94-312), biotin-labeled consensus DNA, incubated at 27° C. or 29° C. for 60 min
Outline: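 E. coli His-p53 Y220C + biotin consensus DNA; anti-His-APC/SA-Eu TR-FRET. SC150 vs no-compound.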

T1 sequence (P04637 94-312, change not shown): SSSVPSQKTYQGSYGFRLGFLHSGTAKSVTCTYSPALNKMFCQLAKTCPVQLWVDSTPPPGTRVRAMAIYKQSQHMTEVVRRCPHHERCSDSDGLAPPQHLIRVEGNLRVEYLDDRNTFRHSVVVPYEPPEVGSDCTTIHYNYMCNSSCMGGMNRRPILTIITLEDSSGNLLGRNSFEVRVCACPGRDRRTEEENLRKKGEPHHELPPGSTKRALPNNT

Compound	SC150 (concentration of the compound required to increase the DNA binding activity by 50%)
COCC(O)CN1CCC(Nc2cccc3c2cc(C#CCNc2ccc(S(C)(=O)=O)cc2OC)n3CCCl)CC1 (stereo not shown) [Compound 700A, 1-(4-{[1-(2-chloroethyl)-2-{3-[(4-methanesulfonyl-2-methoxyphenyl)amino]prop-1-yn-1-yl}-1H-indol-4-yl]amino}piperidin-1-yl)-3-methoxypropan-2-ol]	+ (+ = 0 μM ≤ SC150 < 0.05 μM)
CCOC(=O)c1ccc(NCC#Cc2cc3c(N[C@H]4CCN(C)C[C@H]4F)cccc3n2CC(F)(F)F)c(OC)c1 [Compound 840A, ethyl 4-((3-(4-(((3R,4S)-3-fluoro-1-methylpiperidin-4-yl)amino)-1-(2,2,2-trifluoroethyl)-1H-indol-2-yl)prop-2-yn-1-yl)amino)-3-methoxybenzoate]	+ (+ = 0 μM ≤ SC150 < 0.05 μM)
CCn1ccc(C(=O)NCC#Cc2cc3c(N[C@@H]4CCN(C)C[C@@H]4F)cccc3n2CC(F)(F)F)c1 [Compound 954A, 1-ethyl-N-[3-(4-{[(3S,4R)-3-fluoro-1-methylpiperidin-4-yl]amino}-1-(2,2,2-trifluoroethyl)-1H-indol-2-yl)prop-2-yn-1-yl]-1H-pyrrole-3-carboxamide]	+ (+ = 0 μM ≤ SC150 < 0.05 μM)
CNC(=O)c1ccc(NCC#Cc2cc3c(NC4CCN(CC(O)COC)CC4)cccc3n2CC(F)(F)F)c(OCCOC)c1 (stereo not shown) [Compound 653A, 4-{[3-(4-{[1-(2-hydroxy-3-methoxypropyl)piperidin-4-yl]amino}-1-(2,2,2-trifluoroethyl)-1H-indol-2-yl)prop-2-yn-1-yl]amino}-3-(2-methoxyethoxy)-N-methylbenzamide]	+ (+ = 0 μM ≤ SC150 < 0.05 μM)
CNC(=O)c1ccc(NCC#Cc2cc3c(N[C@H]4CC[C@H](N5CCOCC5)CC4)cccc3n2CCF)c(OC)c1 [Compound 175A, 4-({3-[1-(2-fluoro-ethyl)-4-{[(1R,4R)-4-(morpholin-4-yl)cyclohexyl]amino}-1H-indol-2-yl]prop-2-yn-1-yl}amino)-3-methoxy-N-methylbenzamide]	++ (++ = 0.05 μM ≤ SC150 < 0.1 μM)
COc1cc(C(=O)NCC(=O)O)ccc1NCC#Cc1cc2c(N[C@@H]3CCN(C)C[C@@H]3F)cccc2n1CC(F)(F)F [Compound 896A, (4-((3-(4-(((3S,4R)-3-fluoro-1-methylpiperidin-4-yl)amino)-1-(2,2,2-trifluoroethyl)-1H-indol-2-yl)prop-2-yn-1-yl)amino)-3-methoxybenzoyl)glycine]	+ (+ = 0 μM ≤ SC150 < 0.05 μM)
CNc1cc(S(C)(=O)=O)ccc1OCC#Cc1cc2c(N[C@H]3CC[C@H](N(C)C)CC3)cccc2n1CC(F)(F)F [Compound 109A, (1R,4R)-N^4-(2-{3-[4-methanesulfonyl-2-(methylamino)phenoxy]prop-1-yn-1-yl}-1-(2,2,2-trifluoroethyl)-1H-indol-4-yl)-N^1,N^1-dimethylcyclohexane-1,4-diamine]	+ (+ = 0 μM ≤ SC150 < 0.05 μM)
COc1cc(S(=O)(=O)N(C)C)ccc1NCC#Cc1cc2c(N[C@H]3CC[C@H](N4CC5(COC5)C4)CC3)cccc2n1CC(F)(F)F [Compound 267A, 4-((3-(4-(((1R,4R)-4-(2-oxa-6-azaspiro[3.3]heptan-6-yl)cyclo-hexyl)amino)-1-(2,2,2-trifluoroethyl)-1H-indol-2-yl)prop-2-yn-1-yl)amino)-3-methoxy-N,N-dimethylbenzene-sulfonamide]	+ (+ = 0 μM ≤ SC150 < 0.05 μM)
COc1cc(S(C)(=O)=O)ccc1NCC#Cc1cc2c(NC3CCOCC3)c(OC)ccc2n1CC(F)(F)F [Compound 1012A, 2-{3-[(4-methanesulfonyl-2-methoxyphenyl)amino]prop-1-yn-1-yl}-5-methoxy-N-(oxan-4-yl)-1-(2,2,2-trifluoroethyl)-1H-indol-4-amine]	++++ (++++ = 0.2 μM ≤ SC150 < 1 μM)

Now from value to compound:

SC150 (concentration of the compound required to increase the DNA binding activity by 50%)	Compound
+ (+ = 0 μM ≤ SC150 < 0.05 μM)	COc1cc(S(=O)(=O)N(C)CCO)ccc1NCC#Cc1cc2c(NC3CCOCC3)cccc2n1CC(F)(F)F [Compound 996A, N-(2-hydroxyethyl)-3-methoxy-N-methyl-4-[(3-{4-[(oxan-4-yl)amino]-1-(2,2,2-trifluoroethyl)-1H-indol-2-yl}prop-2-yn-1-yl)amino]benzene-1-sulfonamide]
+ (+ = 0 μM ≤ SC150 < 0.05 μM)	COc1cc(S(=O)(=O)N(CCO)CCO)ccc1NCC#Cc1cc2c(NC3CCOCC3)cccc2n1CC(F)(F)F [Compound 1007A, N,N-bis(2-hydroxyethyl)-3-methoxy-4-[(3-{4-[(oxan-4-yl)amino]-1-(2,2,2-trifluoroethyl)-1H-indol-2-yl}prop-2-yn-1-yl)amino]benzene-1-sulfonamide]
+ (+ = 0 μM ≤ SC150 < 0.05 μM)	COc1cc(S(=O)(=O)NC(C)=O)ccc1NCC#Cc1cc2c(NC3CCN(CC4COC(=O)O4)CC3)cccc2n1CC(F)(F)F (stereo not shown) [Compound 761A, N-[3-methoxy-4-({3-[4-({1-[(2-oxo-1,3-dioxolan-4-yl)methyl]piperidin-4-yl}amino)-1-(2,2,2-trifluoroethyl)-1H-indol-2-yl]prop-2-yn-1-yl}amino)benzenesulfonyl]acetamide]
+ (+ = 0 μM ≤ SC150 < 0.05 μM)	COc1cc(S(N)(=O)=O)ccc1NCC#Cc1cc2c(N[C@H]3CC[C@H](N4CCC(S(C)(=O)=O)CC4)CC3)cccc2n1CC(F)(F)F [Compound 446A, 3-methoxy-4-{[3-(4-{[(1R,4R)-4-(4-methanesulfonyl-piperidin-1-yl)cyclo-hexyl]amino}-1-(2,2,2-trifluoroethyl)-1H-indol-2-yl)prop-2-yn-1-yl]amino}benzene-1-sulfonamide]
++ (++ = 0.05 μM ≤ SC150 < 0.1 μM)	COc1cc(S(C)(=O)=O)ccc1NCC#Cc1cc2c(N[C@H]3CCOC[C@@H]3OC)cccc2n1CC(F)(F)F [Compound 1023A, 2-(3-((2-methoxy-4-(methylsulfonyl)phenyl)amino)prop-1-yn-1-yl)-N-((3R,4S)-3-methoxytetrahydro-2H-pyran-4-yl)-1-(2,2,2-trifluoroethyl)-1H-indol-4-amine]
+ (+ = 0 μM ≤ SC150 < 0.05 μM)	COCCN(C)S(=O)(=O)c1ccc(NCC#Cc2cc3c(NC4CCS(=O)(=O)CC4)cccc3n2CC(F)(F)F)c(OC)c1 [Compound 1046A, 4-[(3-{4-[(1,1-dioxo-1λ^6-thian-4-yl)amino]-1-(2,2,2-trifluoroethyl)-1H-indol-2-yl}prop-2-yn-1-yl)amino]-3-methoxy-N-(2-methoxyethyl)-N-methylbenzene-1-sulfonamide]
+++ (+++ = 0.1 μM ≤ SC150 < 0.2 μM)	COc1cc(S(C)(=O)=O)ccc1NCC#Cc1cc2c(NC3CCCC(C(=O)O)C3)cccc2n1CC(F)(F)F (stereo not shown) [Compound 36A, 3-[(2-{3-[(4-methane-sulfonyl-2-methoxy-phenyl)amino]prop-1-yn-1-yl}-1-(2,2,2-trifluoroethyl)-1H-indol-4-yl)amino] cyclohexane-1-carboxylic acid]
+ (+ = 0 μM ≤ SC150 < 0.05 μM)	COc1cc(S(C)(=O)=O)ccc1NCC#Cc1cc2c(N[C@@H]3CCN(CCO)C[C@@H]3F)cccc2n1CC(F)(F)F [Compound 853A, 2-[(3S,4R)-3-fluoro-4-[(2-{3-[(4-methanesulfonyl-2-methoxyphenyl)amino]prop-1-yn-1-yl}-1-(2,2,2-trifluoroethyl)-1H-indol-4-yl)amino]piperidin-1-yl]ethan-1-ol]
+ (+ = 0 μM ≤ SC150 < 0.05 μM)	COc1cc(C(=O)O)ccc1NCC#Cc1cc2c(NC3CCN(CCCS(C)(=O)=O)CC3)cccc2n1CC(F)(F)F [Compound 707A, 4-{[3-(4-{[1-(3-methanesulfonylpropyl)piperidin-4-yl]amino}-1-(2,2,2-trifluoroethyl)-1H-indol-2-yl)prop-2-yn-1-yl]amino}-3-methoxybenzoic acid]
+ (+ = 0 μM ≤ SC150 < 0.05 μM)	COc1cc(S(C)(=O)=O)ccc1NCC#Cc1cc2c(N[C@H]3CCN(C)C[C@@H]3F)cccc2n1CC(F)(F)F [Compound 771A]
+ (+ = 0 μM ≤ SC150 < 0.05 μM)	COc1cc(S(C)(=O)=O)ccc1NCC#Cc1cc2c(N[C@H]3CC[C@@H](N4CCC5(CC4)COC5)CC3)cccc2n1CC(F)(F)F [Compound 374A, 2-{3-[(4-methane-sulfonyl-2-methoxy-phenyl)amino]prop-1-yn-1-yl}-N-[(1S,4S)-4-{2-oxa-7-azaspiro[3.5]nonan-7-yl}cyclohexyl]-1-(2,2,2-trifluoroethyl)-1H-indol-4-amine]
+ (+ = 0 μM ≤ SC150 < 0.05 μM)	COc1cc(S(N)(=O)=O)ccc1NCC#Cc1cc2c(N[C@H]3CC[C@H](N4CCC5(CCO5)CC4)CC3)cccc2n1CC(F)(F)F [Compound 387A, 3-methoxy-4-{[3-(4-{[(1R,4R)-4-{1-oxa-7-azaspiro[3.5]nonan-7-yl}cyclohexyl]amino}-1-(2,2,2-trifluoroethyl)-1H-indol-2-yl)prop-2-yn-1-yl]amino}benzene-1-sulfonamide]
+ (+ = 0 μM ≤ SC150 < 0.05 μM)	CNS(=O)(=O)c1ccc(NCC#Cc2cc3c(N[C@H]4CC[C@H](N5CCOCC5)CC4)cccc3n2CC(F)(F)F)c(OC)c1 [Compound 187A, 3-methoxy-N-methyl-4-{[3-(4-{[(1R,4R)-4-(morpholin-4-yl)cyclohexyl]amino}-1-(2,2,2-trifluoroethyl)-1H-indol-2-yl)prop-2-yn-1-yl]amino}benzene-1-sulfonamide]
